# Data reported in patent publication US7584718B2, “Growing marine fish in fresh water” (MariCal, Inc., priority 2000, dated 2009).
# Test system: full-length cation receptor (CaR) from the dogfish shark
# Assay: Dogfish shark CaR expressed in human HEK cells, response to ionic composition of extracellular fluid
# Type: cell-based
# Details: extracellular fluid bathing HEK cells; range from freshwater to seawater
# From the text: Polyvalent cation-sensing receptors (PVCRs) serve as salinity sensors in fish. These receptors are localized to the apical membranes of various cells within the fish's body (e.g., in the gills, intestine, kidney) that are known to be responsible for osmoregulation. A full-length cation receptor (CaR) from the dogfish shark has been expressed in human HEK cells. […] The ionic concentrations responded to encompassed the range which includes the transition from freshwater to seawater. Expression of PVCR mRNA is also modulated in fish after their transfer from freshwater to seawater, and is modulated by PVCR agonists.
row,SMILES,Receptor response to alterations in ionic composition
1,"[Mg+2] [Mg^2+, magnesium]",respond to alterations
2,"[Cl-].[Na+] [NaCl, sodium chloride]",respond to alterations
3,"[Ca+2] [Ca^2+, calcium]",respond to alterations
